Assay results as given in the supplement of paper PMC10733146.

What was measured:
Assay in all cases: viability relative to DMSO control (fraction); higher = less drug effect (more viable cells)
Conditions in all cases: 48 h
[1] = system: primary AML patient cells (S055)
Procedure, shortened: (§1)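 Compounds were pre-plated at five concentrations, one well each, in 384-well plates, and primary mononuclear tumour cells were plated on them at 4 × 10^4 cells per well. The cells, fresh or cryopreserved, had been Ficoll-isolated from blood or bone marrow or taken from processed lymph node. After 48 h at 37 °C and 5% CO2 in RPMI-1640 with penicillin/streptomycin, L-glutamine and human serum, viability was read as CellTiter-Glo luminescence relative to the median of 16 inner DMSO wells.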

[2] = system: primary AML patient cells (S037)
Procedure, shortened: as §1

[3] = system: primary AML patient cells (S089)
Procedure, shortened: as §1

[4] = system: primary CLL patient cells (S031)
Procedure, shortened: as §1

[5] = system: primary T-PLL patient cells (S008)
Procedure, shortened: as §1

[6] = system: primary MCL patient cells (S053)
Procedure, shortened: as §1

[7] = system: primary DLBCL patient cells (S082)
Procedure, shortened: as §1

[8] = system: primary FL patient cells (S087)
Procedure, shortened: as §1

[9] = system: primary AML patient cells (S056)
Procedure, shortened: as §1

[10] = system: primary FL patient cells (S022)
Procedure, shortened: as §1

[11] = system: primary AML patient cells (S072)
Procedure, shortened: as §1

[12] = system: primary MCL patient cells (S068)
Procedure, shortened: as §1

[13] = system: primary AML patient cells (S091)
Procedure, shortened: as §1

[14] = system: primary AML patient cells (S079)
Procedure, shortened: as §1

[15] = system: primary AML patient cells (S006)
Procedure, shortened: as §1

[16] = system: primary MCL patient cells (S041)
Procedure, shortened: as §1

[17] = system: primary AML patient cells (S012)
Procedure, shortened: as §1

[18] = system: primary ALL patient cells (S048)
Procedure, shortened: as §1

[19] = system: primary AML patient cells (S009)
Procedure, shortened: as §1

[20] = system: primary MCL patient cells (S063)
Procedure, shortened: as §1

## N#CC[C@H](C1CCCC1)n1cc(-c2ncnc3[nH]ccc23)cn1 [Ruxolitinib]
[1]; 0.024 µM
  viability: 1.01
[1]; 0.12 µM
  viability: 0.961
[1]; 0.6 µM
  viability: 1
[1]; 3 µM
  viability: 1.03
[1]; 15 µM
  viability: 1.05
[2]; 0.024 µM
  viability: 1.02
[2]; 0.12 µM
  viability: 0.956
[2]; 0.6 µM
  viability: 0.989
[2]; 3 µM
  viability: 0.97
[2]; 15 µM
  viability: 0.965
[3]; 0.024 µM
  viability: 0.658
[3]; 0.12 µM
  viability: 0.804
[3]; 0.6 µM
  viability: 0.603
[3]; 3 µM
  viability: 0.686
[3]; 15 µM
  viability: 0.704
[4]; 0.024 µM
  viability: 1.06
[4]; 0.12 µM
  viability: 1
[4]; 0.6 µM
  viability: 1.04
[4]; 3 µM
  viability: 0.896
[4]; 15 µM
  viability: 0.689
[5]; 0.024 µM
  viability: 0.966
[5]; 0.12 µM
  viability: 1.01
[5]; 0.6 µM
  viability: 0.97
[5]; 3 µM
  viability: 1.09
[5]; 15 µM
  viability: 0.952
[6]; 0.024 µM
  viability: 1.03
[6]; 0.12 µM
  viability: 0.928
[6]; 0.6 µM
  viability: 1.02
[6]; 3 µM
  viability: 1.03
[6]; 15 µM
  viability: 0.831
[7]; 0.024 µM
  viability: 1.01
[7]; 0.12 µM
  viability: 0.904
[7]; 0.6 µM
  viability: 1.03
[7]; 3 µM
  viability: 1.04
[7]; 15 µM
  viability: 0.913
[8]; 0.024 µM
  viability: 1.02
[8]; 0.12 µM
  viability: 0.929
[8]; 0.6 µM
  viability: 0.942
[8]; 3 µM
  viability: 0.962
[8]; 15 µM
  viability: 0.871
[9]; 0.024 µM
  viability: 0.954
[9]; 0.12 µM
  viability: 0.894
[9]; 0.6 µM
  viability: 0.814
[9]; 3 µM
  viability: 0.891
[9]; 15 µM
  viability: 0.69
[10]; 0.024 µM
  viability: 0.968
[10]; 0.12 µM
  viability: 0.882
[10]; 0.6 µM
  viability: 1.05
[10]; 3 µM
  viability: 0.908
[10]; 15 µM
  viability: 0.893
[11]; 0.024 µM
  viability: 1.04
[11]; 0.12 µM
  viability: 0.925
[11]; 0.6 µM
  viability: 0.873
[11]; 3 µM
  viability: 0.913
[11]; 15 µM
  viability: 0.883
[12]; 0.024 µM
  viability: 0.978
[12]; 0.12 µM
  viability: 0.987
[12]; 0.6 µM
  viability: 0.989
[12]; 3 µM
  viability: 1.05
[12]; 15 µM
  viability: 0.947
[13]; 0.024 µM
  viability: 0.915
[13]; 0.12 µM
  viability: 1.09
[13]; 0.6 µM
  viability: 0.889
[13]; 3 µM
  viability: 1.12
[13]; 15 µM
  viability: 1.28
[14]; 0.024 µM
  viability: 0.979
[14]; 0.12 µM
  viability: 0.845
[14]; 0.6 µM
  viability: 0.808
[14]; 3 µM
  viability: 0.774
[14]; 15 µM
  viability: 0.724
[15]; 0.024 µM
  viability: 1.04
[15]; 0.12 µM
  viability: 0.921
[15]; 0.6 µM
  viability: 0.963
[15]; 3 µM
  viability: 0.904
[15]; 15 µM
  viability: 0.656
[16]; 0.024 µM
  viability: 1.02
[16]; 0.12 µM
  viability: 0.972
[16]; 0.6 µM
  viability: 0.997
[16]; 3 µM
  viability: 1.01
[16]; 15 µM
  viability: 0.952
[17]; 0.024 µM
  viability: 0.973
[17]; 0.12 µM
  viability: 0.973
[17]; 0.6 µM
  viability: 1.03
[17]; 3 µM
  viability: 0.951
[17]; 15 µM
  viability: 0.846
[18]; 0.024 µM
  viability: 1.03
[18]; 0.12 µM
  viability: 0.945
[18]; 0.6 µM
  viability: 0.963
[18]; 3 µM
  viability: 0.988
[18]; 15 µM
  viability: 0.852
[19]; 0.024 µM
  viability: 1.09
[19]; 0.12 µM
  viability: 1.01
[19]; 0.6 µM
  viability: 0.98
[19]; 3 µM
  viability: 1.02
[19]; 15 µM
  viability: 0.928
[20]; 0.024 µM
  viability: 1.02
[20]; 0.12 µM
  viability: 0.939
[20]; 0.6 µM
  viability: 0.975
[20]; 3 µM
  viability: 0.932
[20]; 15 µM
  viability: 0.875
